Where a name gives a salt, the structure may show the parent alone. Read-outs that look alike come from different tables or passages of the source.

Format in all cases: biochemical
Assay [1] concerns the target T1, human JAK1 (a.a. 837-1142) (Homo sapiens, UniProt P23458).
T1 construct: human JAK1 (a.a. 837-1142); His tag (N); made in house; host or cells: insect cells (baculovirus)
As to the kind of experiment: In vitro JAK kinase assay (HTRF, phosphorylation of a biotinylated peptide), JAK1. To be noted: read-out: JAK1 IC50. An outline of the steps: (§1)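 Kinase reactions ran at room temperature for 1 h with ATP matched per isoform (JAK1 90 μM, JAK2 30 μM, JAK3 3 μM). After an EDTA stop, the phosphorylated biotin-peptide was read by HTRF using Eu-Py20 and SA-APC after 40 min binding.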
In general terms: Time-resolved FRET reads energy transfer from a long-lived donor to a nearby acceptor.

The target in assay [2] is T2, human JAK2 (a.a. 828-1132) (Homo sapiens, UniProt O60674).
T2 construct: JAK2 (a.a. 828-1132); His tag (N); made in house; host or cells: insect cells (baculovirus)
Nature of the assay: In vitro JAK kinase assay (HTRF, phosphorylation of a biotinylated peptide), JAK2. The method, boiled down:
as §1

Assay [3] has as its target T3, human JAK3 (a.a. 781-1124) (Homo sapiens, UniProt P52333).
T3 construct: JAK3 (a.a. 781-1124); His tag (N); made in house; host or cells: insect cells (baculovirus)
Nature of the assay: In vitro JAK kinase assay (HTRF, phosphorylation of a biotinylated peptide), JAK3. The method, boiled down: as §1

For assay [4], the target named is TYK2 (Homo sapiens, UniProt P29597). Nature of the assay: TYK2 kinase inhibition (Table A1).
Assay [5] deals with T4, Recombinant Human Anaplastic Lymphoma Kinase (Homo sapiens, UniProt Q9UM73).
T4 construct: purchased Invitrogen, Carlsbad, Calif
Nature of the assay: ALK HTRF kinase assay. To be noted: for IC50: Table D1. An outline of the steps: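 Recombinant human ALK with biotinylated peptide substrate; phosphorylation detected by HTRF using Eu-labelled anti-phosphotyrosine antibody and streptavidin-allophycocyanin. IC50 from a sigmoidal fit with Hill slope.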

Setting [6] is: method AA1 (90 μM ATP) or AA2 (1000 μM ATP), not stated per value.
The mark [7] stands for this setting: method AA1 (30 μM ATP) or AA2 (1000 μM ATP), not stated per value.
[8] abbreviates: method AA1 (3 μM ATP) or AA2 (1000 μM ATP), not stated per value.
Setting [9] is: compound at 500 nM or 1 mM, 90 μM ATP.
The mark [10] stands for this setting: compound at a concentration of 500 nM or 1 mM (not specified), cells shown as percentage.

T4 sequence (Q9UM73 19-1620): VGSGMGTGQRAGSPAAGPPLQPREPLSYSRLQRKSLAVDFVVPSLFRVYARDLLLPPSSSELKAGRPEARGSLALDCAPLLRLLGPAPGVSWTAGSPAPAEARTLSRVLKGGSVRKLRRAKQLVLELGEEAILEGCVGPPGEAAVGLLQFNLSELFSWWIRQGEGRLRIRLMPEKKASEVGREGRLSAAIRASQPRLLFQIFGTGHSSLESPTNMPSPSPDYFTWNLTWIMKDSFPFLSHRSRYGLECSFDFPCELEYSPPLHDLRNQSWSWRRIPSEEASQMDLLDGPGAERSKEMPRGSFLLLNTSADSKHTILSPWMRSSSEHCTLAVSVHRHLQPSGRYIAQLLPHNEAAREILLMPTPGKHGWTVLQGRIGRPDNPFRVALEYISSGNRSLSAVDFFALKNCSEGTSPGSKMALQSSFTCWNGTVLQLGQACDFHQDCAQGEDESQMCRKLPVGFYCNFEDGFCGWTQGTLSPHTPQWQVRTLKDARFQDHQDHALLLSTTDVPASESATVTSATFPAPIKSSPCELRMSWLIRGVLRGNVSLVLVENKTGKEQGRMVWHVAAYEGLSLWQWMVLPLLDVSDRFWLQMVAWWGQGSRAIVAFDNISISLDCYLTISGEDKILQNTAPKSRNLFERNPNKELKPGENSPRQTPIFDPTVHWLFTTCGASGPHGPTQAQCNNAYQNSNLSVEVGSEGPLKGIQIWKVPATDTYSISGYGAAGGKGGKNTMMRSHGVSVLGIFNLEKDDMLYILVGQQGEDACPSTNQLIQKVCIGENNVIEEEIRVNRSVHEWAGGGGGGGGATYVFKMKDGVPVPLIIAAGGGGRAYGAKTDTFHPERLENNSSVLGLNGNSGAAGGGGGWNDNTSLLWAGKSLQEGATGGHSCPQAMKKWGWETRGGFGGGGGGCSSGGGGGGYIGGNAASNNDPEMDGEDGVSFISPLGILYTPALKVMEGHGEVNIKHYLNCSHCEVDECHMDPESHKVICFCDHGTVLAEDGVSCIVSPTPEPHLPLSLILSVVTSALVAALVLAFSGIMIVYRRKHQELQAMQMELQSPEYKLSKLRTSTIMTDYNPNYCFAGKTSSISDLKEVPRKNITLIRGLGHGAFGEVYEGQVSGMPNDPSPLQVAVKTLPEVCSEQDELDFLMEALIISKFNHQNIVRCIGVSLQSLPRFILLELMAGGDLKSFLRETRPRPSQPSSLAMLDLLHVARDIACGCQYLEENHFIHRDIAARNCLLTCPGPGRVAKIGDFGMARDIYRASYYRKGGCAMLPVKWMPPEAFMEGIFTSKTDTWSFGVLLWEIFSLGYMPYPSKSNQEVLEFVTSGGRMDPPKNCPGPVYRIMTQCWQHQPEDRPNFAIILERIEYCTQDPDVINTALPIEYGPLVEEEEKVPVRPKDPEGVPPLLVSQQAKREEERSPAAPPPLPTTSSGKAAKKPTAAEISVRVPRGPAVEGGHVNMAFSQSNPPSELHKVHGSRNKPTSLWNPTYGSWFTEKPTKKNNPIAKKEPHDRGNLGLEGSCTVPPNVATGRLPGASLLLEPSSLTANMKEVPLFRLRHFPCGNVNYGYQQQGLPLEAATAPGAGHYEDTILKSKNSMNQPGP
T2 sequence (O60674 828-1132): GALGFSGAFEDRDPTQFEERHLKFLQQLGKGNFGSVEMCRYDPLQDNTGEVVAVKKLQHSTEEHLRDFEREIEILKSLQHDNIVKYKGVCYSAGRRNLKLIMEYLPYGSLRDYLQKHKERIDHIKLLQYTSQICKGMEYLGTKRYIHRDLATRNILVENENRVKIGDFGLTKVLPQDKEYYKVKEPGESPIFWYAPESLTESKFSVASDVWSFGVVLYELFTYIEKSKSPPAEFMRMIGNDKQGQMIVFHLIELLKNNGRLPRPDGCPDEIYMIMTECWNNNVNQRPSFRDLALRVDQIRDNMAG
T1 sequence (P23458 849-1154): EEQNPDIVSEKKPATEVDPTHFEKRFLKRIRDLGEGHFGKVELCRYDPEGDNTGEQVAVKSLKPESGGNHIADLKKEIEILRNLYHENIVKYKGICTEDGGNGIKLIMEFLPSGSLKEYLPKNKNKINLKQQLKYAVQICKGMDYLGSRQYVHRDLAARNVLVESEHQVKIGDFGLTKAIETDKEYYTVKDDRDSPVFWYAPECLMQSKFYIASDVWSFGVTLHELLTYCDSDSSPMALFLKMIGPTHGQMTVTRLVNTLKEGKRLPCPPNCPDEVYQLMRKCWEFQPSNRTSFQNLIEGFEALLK
Sequence of TYK2 (P29597 whole entry): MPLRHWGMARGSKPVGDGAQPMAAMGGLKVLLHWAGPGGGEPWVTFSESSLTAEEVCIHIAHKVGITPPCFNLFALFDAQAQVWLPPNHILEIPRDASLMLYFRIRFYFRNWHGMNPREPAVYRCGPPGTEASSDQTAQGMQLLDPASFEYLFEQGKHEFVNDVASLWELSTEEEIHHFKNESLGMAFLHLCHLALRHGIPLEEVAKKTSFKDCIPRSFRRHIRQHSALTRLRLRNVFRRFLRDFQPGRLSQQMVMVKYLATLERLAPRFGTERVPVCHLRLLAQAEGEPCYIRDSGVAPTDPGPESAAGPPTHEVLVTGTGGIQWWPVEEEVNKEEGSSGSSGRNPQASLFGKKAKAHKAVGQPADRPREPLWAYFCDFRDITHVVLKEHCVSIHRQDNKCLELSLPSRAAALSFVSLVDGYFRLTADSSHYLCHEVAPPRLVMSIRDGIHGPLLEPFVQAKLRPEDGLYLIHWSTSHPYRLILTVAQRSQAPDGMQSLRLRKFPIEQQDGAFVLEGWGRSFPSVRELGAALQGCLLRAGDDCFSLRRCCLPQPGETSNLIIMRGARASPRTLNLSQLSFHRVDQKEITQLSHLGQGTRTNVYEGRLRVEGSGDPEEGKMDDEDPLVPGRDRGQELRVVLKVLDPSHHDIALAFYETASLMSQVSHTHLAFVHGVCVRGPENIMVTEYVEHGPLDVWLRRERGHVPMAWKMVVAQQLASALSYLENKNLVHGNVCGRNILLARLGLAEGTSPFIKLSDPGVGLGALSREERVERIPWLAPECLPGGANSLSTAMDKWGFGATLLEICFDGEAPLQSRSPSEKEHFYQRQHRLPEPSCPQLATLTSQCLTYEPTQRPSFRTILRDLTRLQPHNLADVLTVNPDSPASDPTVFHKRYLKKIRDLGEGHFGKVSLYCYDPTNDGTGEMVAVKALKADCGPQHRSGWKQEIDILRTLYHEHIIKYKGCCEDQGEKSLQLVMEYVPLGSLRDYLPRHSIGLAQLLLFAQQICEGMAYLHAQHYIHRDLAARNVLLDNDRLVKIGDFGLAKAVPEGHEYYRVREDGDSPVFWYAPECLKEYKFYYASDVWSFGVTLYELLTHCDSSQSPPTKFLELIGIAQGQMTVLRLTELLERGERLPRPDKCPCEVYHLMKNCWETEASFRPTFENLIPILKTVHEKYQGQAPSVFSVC
T3 sequence (P52333 781-1124): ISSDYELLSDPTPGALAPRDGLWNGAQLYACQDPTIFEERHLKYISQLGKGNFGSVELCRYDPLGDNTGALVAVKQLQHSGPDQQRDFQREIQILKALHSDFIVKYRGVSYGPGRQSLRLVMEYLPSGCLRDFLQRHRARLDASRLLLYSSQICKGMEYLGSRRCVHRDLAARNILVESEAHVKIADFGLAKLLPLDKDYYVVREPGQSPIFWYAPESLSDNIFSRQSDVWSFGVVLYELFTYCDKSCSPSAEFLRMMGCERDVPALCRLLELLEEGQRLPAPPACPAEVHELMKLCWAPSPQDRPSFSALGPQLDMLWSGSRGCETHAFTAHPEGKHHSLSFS

A word on the IC50: it is the midpoint of a concentration-inhibition curve. As for `O=C(CC1CCN(S(=O)(=O)c2ccccc2F)CC1)Nc1ccc2cc1CCc1cncc(c1)Nc1ncc(Cl)c(n1)N2` [Example A226, N-[6-Chloro-2,4,8,18,22-pentaazatetracyclo[14.3.1.1(3,7).1(9,13)]docosa-1(20),3(22),4,6,9(21),10,12,16,18-nonaen-12-yl]-2-{1-[(2-fluorophenyl)sulfonyl]piperidin-4-yl}acetamide bis(trifluoroacetate)], the IC50 was 5.3 nM in assay [1] (setting [6]), 100 nM in assay [2] (setting [7]), greater than 400 nM in assay [3] (setting [8]) and greater than 400 nM in assay [4]. Moreover, in assay [5] (setting [9]), the “ALK % of inhibition at a concentration of 500 nM or 1 mM” value (shortened to “ALK % of inhibition”) is reported as 55%.
`O=C(Nc1ccc2cc1CCc1cncc(c1)Nc1ncc(Cl)c(n1)N2)N1CCn2c(nnc2C(F)(F)F)C1` [Example B316, N-[6-Chloro-2,4,8,18,22-pentaazatetracyclo[14.3.1.1(3,7).1(9,13)]docosa-1(20),3(22),4,6,9(21),10,12,16,18-nonaen-12-yl]-3-(trifluoromethyl)-5,6-dihydro[1,2,4]triazolo[4,3-a]pyrazine-7(8H)-carboxamide tris(trifluoroacetate)]: the IC50 in assay [1] (Table B1) was 16 nM; in assay [2] (Table B1), 180 nM; in assay [3] (Table B1), greater than 400 nM; in assay [4] (Table B1) it was 208 nM. Moreover, the “ALK % of inhibition” value in assay [5] (percentage inhibition of the example compound at a concentration of 500 nM or 1 mM (not specified which)) is 64%.
`CC(=O)N1CCC(CC(=O)Nc2ccc3cc2CCc2cncc(c2)Nc2ncc(Cl)c(n2)N3)CC1` [Example A76, 2-(1-Acetylpiperidin-4-yl)-N-[6-chloro-2,4,8,18,22-pentaazatetracyclo[14.3.1.1(3,7).1(9,13)]docosa-1(20),3(22),4,6,9(21),10,12,16,18-nonaen-12-yl]acetamide bis(trifluoroacetate)]: the IC50 in assay [1] (setting [6]) was determined as 2 nM; in assay [2] (setting [7]), 4.1 nM; in assay [3] (setting [8]) it was 124 nM; in assay [4] it was 3.9 nM. Also, the “ALK % of inhibition” value in assay [5] (setting [9]) is recorded as 21%.
Take `Clc1cnc2nc1Nc1cccc(c1)CNc1cccc(c1)N2` [Example D17, 6-Chloro-2,4,8,15,22-pentaazatetracyclo[14.3.1.1(3,7).1(9,13)]docosa-1(20),3(22),4,6,9(21),10,12,16,18-nonaene bis(trifluoroacetate)]: the IC50 is 63 nM in assay [1] (Table D1); 32 nM in assay [2] (Table D1); 165 nM in assay [3] (Table D1); 77 nM in assay [4] (Table D1); greater than 1000 nM in assay [5] (90 μM ATP).
With `NS(=O)(=O)N1CC[C@@H](C(=O)Nc2ccc3cc2CCc2cccc(c2)Nc2ncc(Cl)c(n2)N3)C1` [Example A74, (3R)-1-(Aminosulfonyl)-N-[6-chloro-2,4,8,22-tetraazatetracyclo[14.3.1.1(3,7).1(9,13)]docosa-1(20),3(22),4,6,9(21),10,12,16,18-nonaen-12-yl]pyrrolidine-3-carboxamide trifluoroacetate], the IC50 in assay [1] (setting [6]) is 6 nM; in assay [2] (setting [7]), 3 nM; in assay [3] (setting [8]) it was 3.3 nM; in assay [4], 17 nM. Further, the “ALK % of inhibition” value in assay [5] (setting [9]) amounted to 48%.
The matching figures for `COc1ccc(S(=O)(=O)N2CCC(CC(=O)Nc3ccc4cc3CCc3cccc(c3)Nc3ncc(Cl)c(n3)N4)CC2)cc1` [Example A207, N-[6-Chloro-2,4,8,22-tetraazatetracyclo[14.3.1.1(3,7).1(9,13)]docosa-1(20),3(22),4,6,9(21),10,12,16,18-nonaen-12-yl]-2-{1-[(4-methoxyphenyl)sulfonyl]piperidin-4-yl}acetamide trifluoroacetate]: 85 nM, 199 nM, greater than 200 nM, greater than 200 nM and 23%.
As for `COc1cccc(NC(=O)N2CCC(CC(=O)Nc3ccc4cc3CCc3cncc(c3)Nc3ncc(Cl)c(n3)N4)CC2)c1` [Example A153, 4-(2-{[6-chloro-2,4,8,18,22-pentaazatetracyclo[14.3.1.1(3,7).1(9,13)]docosa-1(20),3(22),4,6,9(21),10,12,16,18-nonaen-12-yl]amino}-2-oxoethyl)-N-(3-methoxyphenyl)piperidine-1-carboxamide bis(trifluoroacetate)], the IC50 in assay [1] (setting [6]) is 0.5 nM; in assay [2] (setting [7]) it was 1.1 nM; in assay [3] (setting [8]), greater than 100 nM; in assay [4] it was 5.7 nM. Moreover, in assay [5] (setting [9]), the “ALK % of inhibition” value amounted to 52%.
With `COc1cccc(N2CCC(CC(=O)Nc3ccc4cc3CCc3cncc(c3)Nc3ncc(Cl)c(n3)N4)CC2)c1C#N` [Example A233, N-[6-Chloro-2,4,8,18,22-pentaazatetracyclo[14.3.1.1(3,7).1(9,13)]docosa-1(20),3(22),4,6,9(21),10,12,16,18-nonaen-12-yl]-2-[1-(2-cyano-3-methoxyphenyl)piperidin-4-yl]acetamide tris(trifluoroacetate)], the IC50 is 0.4 nM in assay [1] (setting [6]), 19 nM in assay [2] (setting [7]), greater than 400 nM in assay [3] (setting [8]) and 26 nM in assay [4]. In addition, in assay [5] (setting [9]), the “ALK % of inhibition” value was 24%.
The corresponding values for `O=C(CC1CCN(C(=O)c2ccccc2)CC1)Nc1ccc2cc1CCc1cccc(c1)Nc1ncc(Cl)c(n1)N2` [Example A56, 2-(1-Benzoylpiperidin-4-yl)-N-[6-chloro-2,4,8,22-tetraazatetracyclo[14.3.1.1(3,7).1(9,13)]docosa-1(20),3(22),4,6,9(21),10,12,16,18-nonaen-12-yl]acetamide trifluoroacetate] are 4.2 nM, 7.3 nM, 90 nM, 10 nM and 26%.
On to `CN(C(=O)Nc1ccc2cc1CCc1cncc(c1)Nc1ncc(Cl)c(n1)N2)[C@H]1CCN(C(=O)c2ccccc2)C1` [Example B291, N-[(3S)-1-Benzoylpyrrolidin-3-yl]-N′-[6-chloro-2,4,8,18,22-pentaazatetracyclo[14.3.1.1(3,7).1(9,13)]docosa-1(20),3(22),4,6,9(21),10,12,16,18-nonaen-12-yl]-N-methylurea bis(trifluoroacetate)], for which the IC50 is 28 nM in assay [1] (Table B1), 100 nM in assay [2] (Table B1), greater than 200 nM in assay [3] (Table B1) and 199 nM in assay [4] (Table B1). In assay [5] (setting [10]), the “ALK % of inhibition” value worked out at 58%.
Turning to `O=C(CC1CCN(c2ccccc2)CC1)Nc1ccc2cc1CCc1cncc(c1)Nc1ncc(Cl)c(n1)N2` [Example A219, N-[6-Chloro-2,4,8,18,22-pentaazatetracyclo[14.3.1.1(3,7).1(9,13)]docosa-1(20),3(22),4,6,9(21),10,12,16,18-nonaen-12-yl]-2-(1-phenylpiperidin-4-yl)acetamide tris(trifluoroacetate)], the IC50 in assay [1] (setting [6]) was 12 nM; in assay [2] (setting [7]), 90 nM; in assay [3] (setting [8]) it was greater than 200 nM; in assay [4] it was 180 nM. The “ALK % of inhibition” value in assay [5] (setting [9]) is reported as 20%.
For `Cc1cccc(Cl)c1NC(=O)Nc1ccc2cc1CCc1cccc(c1)Nc1ncc(Cl)c(n1)N2` [Example B122, N-(2-Chloro-6-methylphenyl)-N′-[6-chloro-2,4,8,22-tetraazatetracyclo[14.3.1.1(3,7).1(9,13)]docosa-1(20),3(22),4,6,9(21),10,12,16,18-nonaen-12-yl]urea trifluoroacetate], the IC50 in assay [1] (Table B1) came to 5.6 nM; in assay [2] (Table B1) it was 6.7 nM; in assay [3] (Table B1), 30 nM; in assay [4] (Table B1) it was 24 nM. The “ALK % of inhibition” value in assay [5] (setting [10]) is on record as 13%.
Take `Clc1cnc2nc1Nc1cccc(c1)OCCc1cc(cc(-c3ccc(N4CCNCC4)nc3)c1)N2` [Example D33, 6-Chloro-19-(6-piperazin-1-ylpyridin-3-yl)-14-oxa-2,4,8,23-tetraazatetracyclo[15.3.1.1(3,7).1(9,13)]tricosa-1(21),3(23),4,6,9(22),10,12,17,19-nonaene tris(trifluoroacetate)]: the IC50 in assay [1] (Table D1) worked out at 1.8 nM; in assay [2] (Table D1), 0.7 nM; in assay [3] (Table D1), 12 nM; in assay [4] (Table D1), 4 nM; in assay [5] (90 μM ATP) it was 108 nM.
Regarding `NS(=O)(=O)Nc1ccc2cc1CCc1cccc(c1)Nc1ncc(Cl)c(n1)N2` [Example B184, N-[6-Chloro-2,4,8,22-tetraazatetracyclo[14.3.1.1(3,7).1(9,13)]docosa-1(20),3(22),4,6,9(21),10,12,16,18-nonaen-12-yl]sulfamide trifluoroacetate], the IC50 came to 0.1 nM in assay [1] (Table B1), 0.1 nM in assay [2] (Table B1), 0.1 nM in assay [3] (Table B1) and 0.14 nM in assay [4] (Table B1). The “ALK % of inhibition” value in assay [5] (setting [10]) is recorded as 82%.

The values are drawn from patent US8871753B2, “Macrocyclic compounds and their use as kinase inhibitors” (Incyte Corporation, priority 2008, dated 2014).
